In patent US6514997B2, “Antipicornaviral compounds and compositions, their pharmaceutical uses, and materials for their synthesis” (Agouron Pharmaceuticals, Inc., priority 1999, dated 2003):

Key:
[1] = tested on: HRV-14; assay: Antirhinoviral H1-HeLa cell culture assay (XTT cell protection, EC50), HRV-14; assay type: cell-based, human rhinovirus (HRV) serotype-14 in H1-HeLa cells; details: Rhinovirus B, HRV14, H1-HeLa
Outline: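 H1-HeLa cells were infected with HRV-14 at m.o.i. 0.13, or mock-infected, and incubated with compound for two days. Cell protection was read by XTT/PMS formazan absorbance at 450/650 nm to give EC50. CC50 came from mock-infected cells, and TI = CC50/EC50.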

[2] = Cytotoxicity (CC50) in mock-infected H1-HeLa cells, XTT dye reduction; assay type: cell-based, human; details: human; for CC50: line of CVB2
Outline: (§1)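 H1-HeLa cells mock-infected, read by XTT/PMS formazan at 450/650 nm.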

[3] = tested on: H1-HeLa cells; assay: as above; assay type: cell-based, human
Outline: as §1

[4] = tested on: coxsackievirus B2 (CVB2); assay: Antiviral cell culture assay (EC50), coxsackievirus B2; assay type: cell-based; details: Enterovirus B
[5] = tested on: coxsackievirus B5 (CVB5); assay: Antiviral cell culture assay (EC50), coxsackievirus B5; assay type: cell-based; details: Enterovirus B
[6] = tested on: echovirus 9 (ECHO-9); assay: Antiviral cell culture assay (EC50), echovirus 9; assay type: cell-based; details: Enterovirus B; ECHO9
[7] = Cytotoxicity (CC50), cell line not stated; assay type: cell-based
[8] = H1-HeLa cells, mock-infected, line of HRV-14
[9] = H1-HeLa cells, uninfected (mock-infected), line of CAV-21
[10] = H1-HeLa cells, uninfected (mock-infected)
[11] = H1-HeLa cells, uninfected (mock-infected), line of CVB3
[12] = H1-HeLa cells, mock-infected, HRV-14
[13] = mock-infected (uninfected) H1-HeLa cells, CAV-21
[14] = mock-infected (uninfected) H1-HeLa cells, CVB3

Cc1cc(C(=O)Nc2cccn([C@@H](Cc3ccc(F)c(F)c3)C(=O)N[C@H](/C=C/C(=O)OC(C)C)C[C@@H]3CCNC3=O)c2=O)no1 [Compound 48, trans-(2′S,3″″″S,4S)-4-[3′-(3″,4″-Difluorophenyl)-2′-(3′″-{[1″″-(5′″″-methylisoxazol-3′″″-yl)methanoyl]amino}-2″″-oxo-2″″H-pyridin-1″″-yl)propanoylamino]-5-(2″″″-oxopyrrolidin-3″″″-yl)pent-2-enoic Acid Isopropyl Ester]
EC50 [1]: 0.003 µM | CC50 at 2 days [2, 8]: > 10 µM | CC50 at 2 days [2, 9]: > 10 µM | CC50 [2, 10]: > 10 µM | CC50 at 1 day [2, 11]: > 10 µM | CC50 ([3]; line of CVB5): > 10 µM | CC50 ([3]; line of HRV-1A): > 10 µM | CC50 ([3]; line of HRV-2): > 10 µM | CC50 ([3]; line of HRV-3): > 10 µM | CC50 ([3]; line of HRV-9): > 10 µM | CC50 ([3]; line of HRV-10): > 10 µM | CC50 ([3]; line of HRV-11): > 10 µM | CC50 ([3]; line of HRV-13): > 10 µM | CC50 ([3]; line of HRV-16): > 10 µM | CC50 ([3]; line of HRV-19): > 10 µM | CC50 ([3]; line of HRV-23): > 10 µM | CC50 ([3]; line of HRV-25): > 10 µM | CC50 ([3]; line of HRV-39): > 10 µM | CC50 ([3]; line of HRV-78): > 10 µM | CC50 ([3]; line of HRV-Hanks): > 10 µM

C#CC[C@@H](C(=O)N[C@H](/C=C/C(=O)OC1CCC1)C[C@@H]1CCNC1=O)n1cccc(NC(=O)c2cc(C)on2)c1=O [Compound 53, trans-(2′S,3′″″S,4S)-4-[2′-(3″-{[1′″-(5″″-Methylisoxazol-3″″-yl)methanoyl]amino}-2′″-oxo-2′″H-pyridin-1′″-yl)pent-4″-ynoylamino]-5-(2′″″-oxopyrrolidin-3′″″-yl)pent-2-enoic Acid Cyclobutyl Ester]
EC50 [1]: 0.04 µM | CC50 at 2 days [2, 8]: > 10 µM | CC50 at 2 days [2, 9]: > 10 µM | CC50 [2, 10]: > 10 µM | CC50 at 1 day [2, 11]: > 10 µM | CC50 ([3]; line of CVB5): > 10 µM | CC50 ([3]; line of HRV-1A): > 10 µM | CC50 ([3]; line of HRV-2): > 10 µM | CC50 ([3]; line of HRV-3): > 10 µM | CC50 ([3]; line of HRV-9): > 10 µM | CC50 ([3]; line of HRV-10): > 10 µM | CC50 ([3]; line of HRV-11): > 10 µM | CC50 ([3]; line of HRV-13): > 10 µM | CC50 ([3]; line of HRV-16): > 10 µM | CC50 ([3]; line of HRV-19): > 10 µM | CC50 ([3]; line of HRV-23): > 10 µM | CC50 ([3]; line of HRV-25): > 10 µM | CC50 ([3]; line of HRV-39): > 10 µM | CC50 ([3]; line of HRV-78): > 10 µM | CC50 ([3]; line of HRV-Hanks): > 10 µM

CC[C@@H](C(=O)N[C@H](/C=C/C(=O)OCc1ccccc1)C[C@@H]1CCNC1=O)n1cccc(NC(=O)c2cc(C)on2)c1=O [Compound 62, trans-(2′S,3′″″S,4S)-4-[2′-(3″-{[1′″-(5″″-Methylisoxazol-3″″-yl)methanoyl]amino}-2′″oxo-2′″H-pyridin-1′″-yl)butanoylamino]-5-(2′″″-oxopyrrolidin-3′″″-yl)pent-2-enoic Acid Benzyl Ester]
EC50 [1]: 0.061 µM | CC50 at 2 days [2, 12]: > 10 µM | CC50 at 2 days [2, 13]: > 10 µM | CC50 at 1 day [2, 14]: > 10 µM | CC50 ([3]; HRV-1A): > 10 µM | CC50 ([3]; HRV-2): > 10 µM | CC50 ([3]; HRV-3): > 10 µM | CC50 ([3]; HRV-9): > 10 µM | CC50 ([3]; HRV-10): > 10 µM | CC50 ([3]; HRV-11): > 10 µM | CC50 ([3]; HRV-13): > 10 µM | CC50 ([3]; HRV-16): > 10 µM | CC50 ([3]; HRV-19): > 10 µM | CC50 ([3]; HRV-23): > 10 µM | CC50 ([3]; HRV-25): > 10 µM | CC50 ([3]; HRV-39): > 10 µM | CC50 ([3]; HRV-78): > 10 µM | CC50 ([3]; HRV-Hanks): > 10 µM | EC50 [4]: 0.016 µM | EC50 [5]: 0.02 µM | EC50 [6]: 0.004 µM | CC50 ([7]; CVB2): > 10 µM | CC50 ([7]; CVB5): > 10 µM | CC50 ([7]; ECHO9): > 10 µM

C#CC[C@@H](C(=O)N[C@H](/C=C/C(=O)OCc1ccccc1)C[C@@H]1CCNC1=O)n1cccc(NC(=O)c2cc(C)on2)c1=O [Compound 63, trans-(2′S,3′″″S,4S)-4-[2′-(3″-{[1′″-(5″″-Methylisoxazol-3″″-yl)methanoyl]amino}-2′″-oxo-2′″H-pyridin-1′″-yl)pent-4″-ynoylamino]-5-(2′″″-oxopyrrolidin-3′″″-yl)pent-2-enoic Acid Benzyl Ester]
EC50 [1]: 0.051 µM | CC50 at 2 days [2, 12]: > 10 µM | CC50 at 2 days [2, 13]: > 10 µM | CC50 at 1 day [2, 14]: > 10 µM | CC50 ([3]; HRV-1A): > 10 µM | CC50 ([3]; HRV-2): > 10 µM | CC50 ([3]; HRV-3): > 10 µM | CC50 ([3]; HRV-9): > 10 µM | CC50 ([3]; HRV-10): > 10 µM | CC50 ([3]; HRV-11): > 10 µM | CC50 ([3]; HRV-13): > 10 µM | CC50 ([3]; HRV-16): > 10 µM | CC50 ([3]; HRV-19): > 10 µM | CC50 ([3]; HRV-23): > 10 µM | CC50 ([3]; HRV-25): > 10 µM | CC50 ([3]; HRV-39): > 10 µM | CC50 ([3]; HRV-78): > 10 µM | CC50 ([3]; HRV-Hanks): > 10 µM | EC50 [4]: 0.012 µM | EC50 [5]: 0.01 µM | EC50 [6]: 0.002 µM | CC50 ([7]; CVB2): > 10 µM | CC50 ([7]; CVB5): > 10 µM | CC50 ([7]; ECHO9): > 10 µM
